Data published in US9573898B2, “Pyridine derivates and their use as Umami tastants” (Givaudan S.A., priority 2011, dated 2017).

What was measured:
Type in all cases: in vivo, human
[1] = test system: professional panel composed of 2 women and 2 men; assay: Tasting of NaCl/ribonucleotide solutions by a professional panel (Example 4); details: 10 ppm compound in 0.5% NaCl and 0.002% ribonucleotide mixture vs the same solution without compound
Description: Three solutions were prepared: • A—a solution of 0.5% NaCl and 0.002% Ribonucleotide mixture, • B—a solution of 0.5% NaCl, 0.002% Ribonucleotide mixture and 10 ppm of 2-(4-ethylphenoxy)-N-(pyridin-2-ylmethyl)acetamide, • C—a solution of 0.5% NaCl, 0.002% Ribonucleotide mixture and 10 ppm of 2-(4-isopropylphenoxy)-N-(pyridin-2-ylmethyl)acetamide.
The samples were tasted by a professional panel composed of 2 women and 2 men aged between 30 and 60.

[2] = test system: professional panel composed of 2 women and 3 men; assay: Tasting of NaCl solutions by a professional panel (Example 2)
Description: Two solutions were prepared: • A—a solution of 0.3% NaCl and 0.05% MSG, • B—a solution of 0.3% NaCl and 1 ppm of 2-(2,3-dihydro-1H-inden-5-yloxy)-N-(pyridin-2-ylmethyl)acetamide.
The samples were tasted by a professional panel composed of 2 women and 3 men aged between 30 and 60. The panel agreed that both solutions tasted umami.

[3] = test system: professional panel composed of 2 women and 3 men; assay: Tasting of NaCl/MSG/ribonucleotide solutions by a professional panel (Example 3); details: solution B (0.5% NaCl, 0.05% MSG, 0.010% ribonucleotide mixture, 2 ppm compound) vs solution A (0.5% NaCl, 0.15% MSG, 0.025% ribonucleotide mixture)
Description: Two solutions were prepared: • A—a solution of 0.5% NaCl, 0.15% MSG and 0.025% Ribonucleotide mixture, • B—a solution of 0.5% NaCl, 0.05% MSG, 0.010% Ribonucleotide mixture and 2 ppm of 2-(2,3-dihydro-1H-inden-5-yloxy)-N-(pyridin-2-ylmethyl)acetamide.
The samples were tasted by a professional panel composed of 2 women and 3 men aged between 30 and 60.

[4] = test system: small group of flavourists (2 male, 2 female); assay: Tomato soup tasting by flavourists (Example 5); details: tomato soup containing 2 ppm compound vs reference soup
Description: A tomato soup mix was prepared from 9.4 g of sodium chloride, 1 g of mono sodium glutamate, 0.08 g ribonucleotides (ex yeast), 32 g of tomato powder (ex Spreda), 25.1 g of glucose, 21 g of starch (Ultrasperse® 5 ex National Starch), 5 g of palm fat powder, 3 g of yeast powder, 1 g of onion powder, 0.15 g of carrot powder, 0.05 g of ground white pepper, 0.3 g celery extract powder, 0.05 g of ground laurel leaf powder, and 1.85 g of sucrose.
25 g of the well mixed ingredients was added to 250 g of boiling water and stirred until completely dissolved.
The reference soup was compared with a batch of the same soup containing 2 ppm of 2-(2,3-dihydro-1H-inden-5-yloxy)-N-(pyridin-2-ylmethyl)acetamide.

[5] = test system: trained sensory panel composed of 20 women; assay: Potato chips tasting by a trained sensory panel (Example 6)
Description: Plain potato chips were prepared. • One part was flavoured with 1.2% sodium chloride (sample A). • One part was flavoured with 1.2% sodium chloride and 0.3% mono sodium glutamate (sample B). • One part was flavoured with 1.2% sodium chloride and 5 ppm 2-(2,3-dihydro-1H-inden-5-yloxy)-N-(pyridin-2-ylmethyl)acetamide (sample C).
The samples A, B and C were tasted by a trained sensory panel composed of 20 women aged between 30 and 60.

[6] = test system: small group of flavourists (2 male, 2 female); assay: Diluted soy sauce tasting by flavourists (Example 7); details: sample A: Kikkoman soy sauce diluted 10 times, 1.5 ppm compound
Description: Kikkoman® soy sauce was diluted 10 times with tap water. One part of the base soy sauce was taken as the reference. To another part (called sample A) 1.5 ppm of 2-(2,3-dihydro-1H-inden-5-yloxy)-N-(pyridin-2-ylmethyl)acetamide was added. To a third part (called sample B) 0.5 ppm of 2-(2,3-dihydro-1H-inden-5-yloxy)-N-(pyridin-2-ylmethyl)acetamide and 1 ppm of 1-(2-hydroxy-4-methoxyphenyl)-3-(pyridin-2-yl)propan-1-one were added.

[7] = solution B (0.3% NaCl, 1 ppm compound) vs solution A (0.3% NaCl, 0.05% MSG)

## CCc1ccc(OCC(=O)NCc2ccccn2)cc1 [2-(4-ethylphenoxy)-N-(pyridin-2-ylmethyl)acetamide]
[1]
  umami strength compared with solution A: stronger umami strength

## O=C(COc1ccc2c(c1)CCC2)NCc1ccccn1 [2-(2,3-dihydro-1H-inden-5-yloxy)-N-(pyridin-2-ylmethyl)acetamide]
[2]; [7]
  further taste notes compared with solution A: more succulence and sweetness and had more lingering notes
  umami strength compared with solution A: slightly stronger umami
[2]; solution B: 0.3% NaCl and 1 ppm compound
  umami taste of solution: tasted umami
[3]
  umami strength compared with solution A: equal umami strength
[4]
  complexity of taste compared with base soup: tasted more complex
  umami taste compared with base soup: more umami
[5]; sample C (1.2% sodium chloride, 5 ppm compound) vs sample A (1.2% NaCl) and sample B (1.2% NaCl, 0.3% MSG)
  panel preference: preferred over the other two samples
[5]; sample C: 1.2% sodium chloride and 5 ppm compound
  taste description: salty, umami, long lasting, savory
[6]
  complexity compared with base soy sauce: more complex
  umami and sweet taste compared with base soy sauce: more umami and slightly more sweet

## CC(C)c1ccc(OCC(=O)NCc2ccccn2)cc1 [2-(4-isopropylphenoxy)-N-(pyridin-2-ylmethyl)acetamide]
[1]
  umami strength compared with solution A: stronger umami strength

## N[C@@H](CCC(=O)O)C(=O)[O-].[Na+] [MSG, mono sodium glutamate, reference compound]
[2]; solution A: 0.3% NaCl and 0.05% MSG
  umami taste of solution: tasted umami
[5]; sample B: 1.2% sodium chloride and 0.3% mono sodium glutamate
  taste description: salty and umami
